Measurements from US20240423992A1, “BIOMARKERS FOR TREATING LIVER DISORDERS WITH THR-B AGONISTS AND RELATED USES” (Madrigal Pharmaceuticals, Inc., priority 2023, published 2024).

Tests used:
[1] = system: patients with Nonalcoholic Steatohepatitis; assay: Phase 3 trial in Nonalcoholic Steatohepatitis (Example 2): NASH resolution and fibrosis improvement on biopsy; format: in vivo, human
Procedure: (§1) A randomized, double-blind, placebo-controlled Phase 3 trial was conducted. Patients were randomly assigned to receive resmetirom 80 mg, resmetirom 100 mg, or placebo administered orally once daily. Screening biopsy results were used as baseline for histologic variables and a second biopsy was performed at Week 52.

[2] = system: patients with Nonalcoholic Steatohepatitis; assay: Phase 3 trial in Nonalcoholic Steatohepatitis (Example 2): thyroid hormone levels; format: in vivo, human
Procedure: as §1

[3] = Resmetirom 80 mg, Week 52, not on thyroxine
[4] = Resmetirom 80 mg, Week 52, thyroxine-treated
[5] = Resmetirom 100 mg, Week 52, not on thyroxine
[6] = Resmetirom 100 mg, Week 52, thyroxine-treated
[7] = independent of thyroxine replacement

With `CC(C)c1cc(Oc2c(Cl)cc(-n3nc(C#N)c(=O)[nH]c3=O)cc2Cl)n[nH]c1=O` [Resmetirom, 2-[3,5-dichloro-4-[(6-oxo-5-propan-2-yl-1H-pyridazin-3-yl)oxy]phenyl]-3,5-dioxo-1,2,4-triazine-6-carbonitrile] the “NASH resolution / fibrosis improvement, 100 mg compared with 80 mg” value ([1]; 100 mg resmetirom group, except in patients ≥65 years) was “generally outperformed the 80 mg group”, the “patients achieving NASH resolution or fibrosis improvement compared with placebo” value ([1]; Week 52 biopsy, across subgroups) was “significantly more resmetirom-treated patients achieving either NASH resolution or fibrosis improvement” and the “response at both endpoints (NASH resolution, fibrosis improvement) by subgroup” value ([1]; patients with ≥30% liver fat reduction or SHBG increase ≥120%) was “greater response”. The “FT3/rT3 CFB, LS Mean Difference from PBO” value ([2]; Resmetirom 80 mg, Week 52) was 0.06, the “FT3/rT3 LS Mean CFB (SE)” value ([2]; Resmetirom 80 mg, Week 52) was 0.06 (0.004) and the “FT3 CFB, LS Mean Difference from PBO” value ([2]; Resmetirom 80 mg, Week 52) was 0.02 ng/L. For the same compound, the “FT3 LS Mean CFB (SE)” value ([2]; Resmetirom 80 mg, Week 52) was −0.01 (0.030) ng/L, the “FT4 % CFB, LS Mean Difference from PBO” value ([2]; Resmetirom 80 mg, Week 52) was −16.6% and the “FT4 CFB, LS Mean Difference from PBO” value ([2]; Resmetirom 80 mg, Week 52) was -0.19 ng/dL. For the same compound, the “FT4 LS Mean % CFB (SE)” value ([2]; Resmetirom 80 mg, Week 52) was −13.9 (0.96) %, the “FT4 LS Mean CFB (SE)” value ([2]; Resmetirom 80 mg, Week 52) was −0.17 (0.011) ng/dL and the “TBG CFB, LS Mean Difference from PBO” value ([2]; Resmetirom 80 mg, Week 52) was -1.9 mg/L. The “TBG LS Mean CFB (SE)” value ([2]; Resmetirom 80 mg, Week 52) was −0.32 (0.45) mg/L, the “TSH CFB, LS Mean Difference from PBO” value ([2]; Resmetirom 80 mg, Week 52) was −0.18 mIU/L and the “TSH LS Mean CFB (SE)” value ([2]; Resmetirom 80 mg, Week 52) was −0.28 (0.059) mIU/L. The “rT3 CFB, LS Mean Difference from PBO” value ([2]; Resmetirom 80 mg, Week 52) was -4.73 ng/dL, the “rT3 LS Mean CFB (SE)” value ([2]; Resmetirom 80 mg, Week 52) was −4.6 (0.31) ng/dL and the “FT3/rT3 CFB, LS Mean Difference from PBO” value [2, 3] was 0.06. The “FT3/rT3 LS Mean CFB (SE)” value [2, 3] was 0.06 (0.005), the “FT3 CFB, LS Mean Difference from PBO” value [2, 3] was 0.01 ng/L and the “FT3 LS Mean CFB (SE)” value [2, 3] was −0.01 (0.032) ng/L. For the same compound, the “FT4 % CFB, LS Mean Difference from PBO” value [2, 3] was −16.3%, the “FT4 CFB, LS Mean Difference from PBO” value [2, 3] was -0.18 ng/dL and the “FT4 LS Mean % CFB (SE)” value [2, 3] was −13.8 (0.97) %. The “FT4 LS Mean CFB (SE)” value [2, 3] was −0.16 (0.011) ng/dL, the “TBG CFB, LS Mean Difference from PBO” value [2, 3] was -1.8 mg/L and the “TBG LS Mean CFB (SE)” value [2, 3] was −0.19 (0.47) mg/L. The “TSH CFB, LS Mean Difference from PBO” value [2, 3] was −0.15 mIU/L, the “TSH LS Mean CFB (SE)” value [2, 3] was −0.23 (0.056) mIU/L and the “rT3 CFB, LS Mean Difference from PBO” value [2, 3] was -4.5 ng/dL. The “rT3 LS Mean CFB (SE)” value [2, 3] was −4.5 (0.33) ng/dL, the “FT3/rT3 CFB, LS Mean Difference from PBO” value [2, 4] was 0.06 and the “FT3/rT3 LS Mean CFB (SE)” value [2, 4] was 0.05 (0.011). The “FT3 CFB, LS Mean Difference from PBO” value [2, 4] was 0.05 ng/L, the “FT3 LS Mean CFB (SE)” value [2, 4] was 0.04 (0.089) ng/L and the “FT4 % CFB, LS Mean Difference from PBO” value [2, 4] was −17.9%. The “FT4 CFB, LS Mean Difference from PBO” value [2, 4] was -0.21 ng/dL, the “FT4 LS Mean % CFB (SE)” value [2, 4] was −14.0 (3.6) % and the “FT4 LS Mean CFB (SE)” value [2, 4] was −0.18 (0.041) ng/dL. For the same compound, the “TBG CFB, LS Mean Difference from PBO” value [2, 4] was -2.6 mg/L, the “TBG LS Mean CFB (SE)” value [2, 4] was −1.1 (1.4) mg/L and the “TSH CFB, LS Mean Difference from PBO” value [2, 4] was −0.41 mIU/L. The “TSH LS Mean CFB (SE)” value [2, 4] was −0.63 (0.27) mIU/L, the “rT3 CFB, LS Mean Difference from PBO” value [2, 4] was -5.1 ng/dL and the “rT3 LS Mean CFB (SE)” value [2, 4] was −5.1 (0.94) ng/dL. For the same compound, the “FT3/rT3 CFB, LS Mean Difference from PBO” value ([2]; Resmetirom 100 mg, Week 52) was 0.07, the “FT3/rT3 LS Mean CFB (SE)” value ([2]; Resmetirom 100 mg, Week 52) was 0.06 (0.004) and the “FT3 CFB, LS Mean Difference from PBO” value ([2]; Resmetirom 100 mg, Week 52) was -0.05 ng/L. The “FT3 LS Mean CFB (SE)” value ([2]; Resmetirom 100 mg, Week 52) was −0.08 (0.031) ng/L, the “FT4 % CFB, LS Mean Difference from PBO” value ([2]; Resmetirom 100 mg, Week 52) was −20.7% and the “FT4 CFB, LS Mean Difference from PBO” value ([2]; Resmetirom 100 mg, Week 52) was -0.24 ng/dL. For the same compound, the “FT4 LS Mean % CFB (SE)” value ([2]; Resmetirom 100 mg, Week 52) was −18.1 (0.97) %, the “FT4 LS Mean CFB (SE)” value ([2]; Resmetirom 100 mg, Week 52) was −0.22 (0.011) ng/dL and the “TBG CFB, LS Mean Difference from PBO” value ([2]; Resmetirom 100 mg, Week 52) was -2.2 mg/L. The “TBG LS Mean CFB (SE)” value ([2]; Resmetirom 100 mg, Week 52) was −0.60 (0.45) mg/L, the “TSH CFB, LS Mean Difference from PBO” value ([2]; Resmetirom 100 mg, Week 52) was −0.10 mIU/L and the “TSH LS Mean CFB (SE)” value ([2]; Resmetirom 100 mg, Week 52) was −0.20 (0.060) mIU/L. For the same compound, the “rT3 CFB, LS Mean Difference from PBO” value ([2]; Resmetirom 100 mg, Week 52) was -5.2 ng/dL, the “rT3 LS Mean CFB (SE)” value ([2]; Resmetirom 100 mg, Week 52) was −5.1 (0.32) ng/dL and the “FT3/rT3 CFB, LS Mean Difference from PBO” value [2, 5] was 0.07. The “FT3/rT3 LS Mean CFB (SE)” value [2, 5] was 0.06 (0.005), the “FT3 CFB, LS Mean Difference from PBO” value [2, 5] was -0.06 ng/L and the “FT3 LS Mean CFB (SE)” value [2, 5] was −0.08 (0.033) ng/L. For the same compound, the “FT4 % CFB, LS Mean Difference from PBO” value [2, 5] was −20.0%, the “FT4 CFB, LS Mean Difference from PBO” value [2, 5] was -0.23 ng/dL and the “FT4 LS Mean % CFB (SE)” value [2, 5] was −17.6 (1.0) %. The “FT4 LS Mean CFB (SE)” value [2, 5] was −0.21 (0.011) ng/dL, the “TBG CFB, LS Mean Difference from PBO” value [2, 5] was -1.8 mg/L and the “TBG LS Mean CFB (SE)” value [2, 5] was −0.21 (0.49) mg/L. The “TSH CFB, LS Mean Difference from PBO” value [2, 5] was −0.12 mIU/L, the “TSH LS Mean CFB (SE)” value [2, 5] was −0.20 (0.058) mIU/L and the “rT3 CFB, LS Mean Difference from PBO” value [2, 5] was -5.1 ng/dL. For the same compound, the “rT3 LS Mean CFB (SE)” value [2, 5] was −4.9 (0.34) ng/dL, the “FT3/rT3 CFB, LS Mean Difference from PBO” value [2, 6] was 0.06 and the “FT3/rT3 LS Mean CFB (SE)” value [2, 6] was 0.06 (0.010). For the same compound, the “FT3 CFB, LS Mean Difference from PBO” value [2, 6] was -0.01 ng/L, the “FT3 LS Mean CFB (SE)” value [2, 6] was −0.03 (0.081) ng/L and the “FT4 % CFB, LS Mean Difference from PBO” value [2, 6] was −24.4%. For the same compound, the “FT4 CFB, LS Mean Difference from PBO” value [2, 6] was -0.29 ng/dL, the “FT4 LS Mean % CFB (SE)” value [2, 6] was −20.6 (3.3) % and the “FT4 LS Mean CFB (SE)” value [2, 6] was −0.26 (0.037) ng/dL. The “TBG CFB, LS Mean Difference from PBO” value [2, 6] was -4.6 mg/L, the “TBG LS Mean CFB (SE)” value [2, 6] was −3.1 (1.3) mg/L and the “TSH CFB, LS Mean Difference from PBO” value [2, 6] was 0.09 mIU/L. The “TSH LS Mean CFB (SE)” value [2, 6] was −0.13 (0.25) mIU/L, the “rT3 CFB, LS Mean Difference from PBO” value [2, 6] was -6.3 ng/dL and the “rT3 LS Mean CFB (SE)” value [2, 6] was −6.3 (0.85) ng/dL. For the same compound, the Thyroid hormone indices ([2]; in vivo) was “not clinically impacted”, the “effect on free triiodothyronine (FT3)” value [2, 7] was “no effect” and the “effect on thyroid-stimulating hormone (TSH)” value [2, 7] was “no effect”. For the same compound, the “reduction of free thyroxine (FT4)” value ([2]; resmetirom groups) was 16-19%.
